{
  "source": "paper PMC12519263",
  "about": "“Antifibrotic Efficacy of a Nintedanib–Peptide Conjugate and Diagnostic Potential of a Fluorescent Companion Probe Targeting αVβ6 Integrin in Idiopathic Pulmonary Fibrosis” (ACS Pharmacology & Translational Science, 2025)",
  "assay": "Body weight monitoring and tolerability in Study #2",
  "assay_type": "in vivo, C57Bl/6 mice",
  "details": "triple oropharyngeal BLM, within the first 7 days, compared to saline group",
  "description": "Figure A illustrates the setup of the pharmacological experiment identified as Study #2 (see also Table S2 in the Supporting Information). After triple BLM instillation, all mice underwent μCT imaging on days 14 and 21, indicating the beginning and the end of the therapeutic window. , On day 14, the BLM-treated mice were divided into 5 groups, namely, Vehicle, NINT (23), NINT (94), PepNIN 1 (23), and Ligand 11 (23). The reference standard in our drug discovery studies is NINT (94), representing the ideal dosage (94 μmol/kg) of the FDA-approved drug that produces antifibrotic effects in the preclinical BLM model. To better emphasize the synergistic therapeutic effect of nintedanib when it is covalently conjugated with our integrin ligand, the stoichiometric dose of nintedanib within the PepNIN 1 group was reduced by four times (to 23 μmol/kg). […]\nThe experiments were carried out on male C57Bl/6 mice aged 7–8 weeks, purchased from Envigo (San Pietro al Natisone, Udine, Italy). […] All required measures were taken to mitigate the animals’ distress or discomfort, and a designated veterinarian or trained technicians assessed pain levels daily using a Visual Analogue Scale (VAS) ranging from 0 to 10. […]",
  "data": [
    {"substance": "Bleomycin hydrochloride [BLM]", "values": [
      {"measurement": "body weight reduction", "result": "10–15%"}
    ]}
  ]
}
